From patent EP4725941A1, “ARYLAMIDE DERIVATIVE HAVING ANTITUMOR ACTIVITY” (priority 2020, dated 2021)
Read-outs that look alike come from different tables or passages of the source.

What was measured:
MEK1 = biological target: T1, MEK1 (Homo sapiens, UniProt Q02750); test: MEK1-inhibiting activity, fluorescent polarization method (CRAF/MEK1/ERK2 cascade, IMAP); type: biochemical
T1 construct: purchased Thermo Fisher Scientific Inc. (MEK1, CRAF); Carna Biosciences, Inc. (ERK2)
Description: The MEK1-inhibiting activity of the compounds listed in Table 3 below were evaluated by the fluorescent polarization method as described below.

BRAF = biological target: T2, BRAF (Homo sapiens, UniProt P15056); test: BRAF-inhibiting activity, time-resolved fluorescence-fluorescence resonance energy transfer assay; type: biochemical
T2 construct: purchased Eurofins Genomics KK; (BRAF); Thermo Fisher Scientific Inc. (MEK1)
Description: The BRAF-inhibiting activity of the compounds listed in Table 3 below was evaluated by the time-resolved fluorescence-fluorescence resonance energy transfer assay as described below.

A549 = test: Cell proliferation-inhibiting activity (ATP in viable cells, CellTiter-Glo), A549; type: cell-based, human; conditions: A549, 96 h, read-out: A549 IC50
Calu-6 = test: Cell proliferation-inhibiting activity (ATP in viable cells, CellTiter-Glo), Calu-6; type: cell-based, human; conditions: Calu-6, 96 h, read-out: Calu-6 IC50
NCI-H2122 = test: Cell proliferation-inhibiting activity (ATP in viable cells, CellTiter-Glo), NCI-H2122; type: cell-based, human; conditions: NCI-H2122, 96 h, read-out: NCI-H2122 IC50
[1] = Human liver microsome stability; type: in vitro ADME; conditions: human liver microsomes, pH 7.4
[2] = human lung cancer cells, 4 days

T2 sequence (P15056 417-766 limits assumed): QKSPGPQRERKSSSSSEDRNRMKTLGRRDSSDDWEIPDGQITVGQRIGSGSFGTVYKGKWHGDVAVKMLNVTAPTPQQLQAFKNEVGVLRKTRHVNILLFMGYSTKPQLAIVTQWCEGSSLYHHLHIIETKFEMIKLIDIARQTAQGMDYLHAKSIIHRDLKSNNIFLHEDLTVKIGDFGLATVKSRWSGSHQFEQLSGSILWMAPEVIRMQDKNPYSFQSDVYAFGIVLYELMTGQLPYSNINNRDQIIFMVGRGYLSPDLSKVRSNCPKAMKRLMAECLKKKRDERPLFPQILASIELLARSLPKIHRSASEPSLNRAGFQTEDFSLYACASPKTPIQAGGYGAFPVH
T1 sequence (Q02750 whole entry): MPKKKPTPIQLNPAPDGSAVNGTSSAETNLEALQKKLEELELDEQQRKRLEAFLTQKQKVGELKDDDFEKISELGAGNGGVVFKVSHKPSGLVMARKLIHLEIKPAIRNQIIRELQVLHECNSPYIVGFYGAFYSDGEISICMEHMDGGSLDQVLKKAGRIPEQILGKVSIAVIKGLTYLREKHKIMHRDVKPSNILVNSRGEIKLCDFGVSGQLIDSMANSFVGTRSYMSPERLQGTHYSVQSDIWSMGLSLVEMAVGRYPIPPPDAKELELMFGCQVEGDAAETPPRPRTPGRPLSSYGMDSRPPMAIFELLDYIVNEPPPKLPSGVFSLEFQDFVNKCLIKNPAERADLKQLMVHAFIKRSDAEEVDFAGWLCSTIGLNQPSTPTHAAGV

Structure (SMILES) | IC50 (MEK1) [nM] | IC50 (BRAF; Table 3; read-out: BRAF IC50) [nM] | IC50 (A549; [2]) [nM] | IC50 (Calu-6; [2]) [nM] | IC50 (NCI-H2122; [2]) [nM] | microsomal CLint at 0.99 µM [1] [µL/min/mg] | IC50 (MEK1; Table 3, read-out: MEK1 IC50) [nM] | IC50 (A549; Homo sapiens) [nM] | IC50 (Calu-6; Homo sapiens) [nM] | IC50 (NCI-H2122; Homo sapiens) [nM] | IC50 (BRAF; read-out: BRAF IC50; Table 3) [nM]
CNS(=O)(=O)Nc1nccc(Cc2cc(C(=O)N[C@@H]3C[C@H]3C)c(Nc3ccc(I)cc3F)c(F)c2F)c1F (racemic) [Compound B-5, 3,4-Difluoro-2-(2-fluoro-4-iodoanilino)-5-[[3-fluoro-2-(methylsulfamoylamino)pyridin-4-yl]methyl]-N-[(1R, 2R)-(+/-)-2-methylcyclopropyl]benzamide (racemate)] | 93 | 6 | 7 | 29 | 5 | 22 |  |  |  |  | 
CNS(=O)(=O)Nc1nccc(Cc2cc(C(=O)NC3CC3(F)F)c(Nc3ccc(I)cc3F)c(F)c2F)c1F (racemic) [Compound B-6, (+/-)-N-(2,2-Difluorocyclopropyl)-3,4-difluoro-2-(2-fluoro-4-iodoanilino)-5-[[3-fluoro-2-(methylsulfamoylamino)pyridin-4-yl]methyl]benzamide (racemate)] | 97 | 15 | 2 | 16 | 1 | 20 |  |  |  |  | 
CNS(=O)(=O)Nc1nccc(Cc2cc(C(N)=O)c(Nc3ccc(C4CC4)cc3F)c(F)c2F)c1F [Compound A-1, 2-(4-cyclopropyl-2-fluoroanilino)-3,4-difluoro-5-[[3-fluoro-2-(methylsulfamoylamino)pyridin-4-yl]methyl]benzamide] |  | 1 |  |  |  | 1 | 17 | 26 | 64 | 5 | 
NS(=O)(=O)Nc1nccc(Cc2cc(C(=O)NC3CC3)c(Nc3ccc(I)cc3F)c(F)c2F)c1F [Compound A-3, N-Cyclopropyl-3,4-difluoro-2-(2-fluoro-4-iodoanilino)-5-[[3-fluoro-2-(sulfamoylamino)pyridin-4-yl]methyl]benzamide] |  |  | 25 | 28 | 13 | 10 | 31 |  |  |  | 5
CCNS(=O)(=O)Nc1nccc(Cc2cc(C(=O)NC3CC3)c(Nc3ccc(I)cc3F)c(F)c2F)c1F [Compound A-4, N-cyclopropyl-5-[[2-(ethylsulfamoylamino)-3-fluoropyridin-4-yl]methyl]-3,4-difluoro-2-(2-fluoro-4-iodoanilino)benzamide] |  |  | 5 | 7 | 1 | 21 | 17 |  |  |  | 2
O=C(NC1CC1)c1cc(Cc2ccnc(NS(=O)(=O)NC3CC3)c2F)c(F)c(F)c1Nc1ccc(I)cc1F [Compound A-5, N-Cyclopropyl-5-[[2-(cyclopropylsulfamoylamino)-3-fluoropyridin-4-yl]methyl]-3,4-difluoro-2-(2-fluoro-4-iodoanilino)benzamide] |  |  | 5 | 12 | 1 | 36 | 10 |  |  |  | 5
O=C(NC1CC1)c1cc(Cc2ccnc(NS(=O)(=O)NCCF)c2F)c(F)c(F)c1Nc1ccc(I)cc1F [Compound A-6, N-cyclopropyl-3,4-difluoro-5-[[3-fluoro-2-(2-fluoroethylsulfamoylamino)pyridin-4-yl]methyl]-2-(2-fluoro-4-iodoanilino)benzamide] |  |  | 17 | 19 | 3 | 20 | 12 |  |  |  | 10
CNC(=O)c1cc(Cc2ccnc(NS(=O)(=O)NC)c2F)c(F)c(F)c1Nc1ccc(I)cc1F [Compound A-7, 3,4-Difluoro-2-(2-fluoro-4-iodoanilino)-5-[[3-fluoro-2-(methylsulfamoylamino)pyridin-4-yl]methyl]-N-methylbenzamide] |  |  | 2 | 18 | 1 | 28 | 18 |  |  |  | 5
CNS(=O)(=O)Nc1nccc(Cc2cc(C(=O)NOC(C)(C)C)c(Nc3ccc(I)cc3F)c(F)c2F)c1F [Compound A-8, 3,4-difluoro-2-(2-fluoro-4-iodoanilino)-5-[[3-fluoro-2-(methylsulfamoylamino)pyridin-4-yl]methyl]-N-[(2-methylpropan-2-yl)oxy]benz amide] |  |  | 0.4 | 2 | 0.1 | 33 | 3 |  |  |  | 4
COCCNS(=O)(=O)Nc1nccc(Cc2cc(C(=O)NOC(C)(C)C)c(Nc3ccc(I)cc3F)c(F)c2F)c1F [Compound A-9, 3,4-Difluoro-2-(2-fluoro-4-iodoanilino)-5-[[3-fluoro-2-(2-methoxyethylsulfamoylamino)pyridin-4-yl]methyl]-N-[(2-methylpropan-2-yl)oxy]be nzamide] |  |  | 2 | 7 | 0.4 | 56 | 4 |  |  |  | 4
CC(C)ONC(=O)c1cc(Cc2ccnc(NS(=O)(=O)NC3(C)CCC3)c2F)c(F)c(F)c1Nc1ccc(I)cc1F [Compound A-12, 3,4-Difluoro-2-(2-fluoro-4-iodoanilino)-5-[[3-fluoro-2-[(1-methylcyclobutyl)sulfamoylamino]pyridin-4-yl]methyl]-N-propan-2-yloxybenzamide] |  |  | 6 | 18 | 5 | 121 | 13 |  |  |  | 6
CNS(=O)(=O)Nc1nccc(Cc2cc(C(=O)NOC)c(Nc3ccc(I)cc3F)c(F)c2F)c1F [Compound A-13, 3,4-difluoro-2-(2-fluoro-4-iodoanilino)-5-[[3-fluoro-2-(methylsulfamoylamino)pyridin-4-yl]methyl]-N-methoxybenzamide] |  |  | 1 | 3 | 0.3 | 31 | 1 |  |  |  | 3
COCCNS(=O)(=O)Nc1nccc(Cc2cc(C(=O)NOC)c(Nc3ccc(I)cc3F)c(F)c2F)c1F [Compound A-14, 3,4-Difluoro-2-(2-fluoro-4-iodoanilino)-5-[[3-fluoro-2-(2-methoxyethylsulfamoylamino)pyridin-4-yl]methyl]-N-methoxybenzamide] |  |  | 11 | 27 | 1 | 39 | 2 |  |  |  | 3
CONC(=O)c1cc(Cc2ccnc(NS(=O)(=O)NC3(C)CCC3)c2F)c(F)c(F)c1Nc1ccc(I)cc1F [Compound A-15, 3,4-difluoro-2-(2-fluoro-4-iodoanilino)-5-[[3-fluoro-2-[(1-methylcyclobutyl)sulfamoylamino]pyridin-4-yl]methyl]-N-methoxybenzamide] |  |  | 2 | 5 | 1 | 57 | 8 |  |  |  | 4
CNS(=O)(=O)Nc1nccc(Cc2cc(C(N)=O)c(Nc3ccc(SC)cc3F)c(F)c2F)c1F [Compound A-18, 3,4-difluoro-5-[[3-fluoro-2-(methylsulfamoylamino)pyridin-4-yl]methyl]-2-(2-fluoro-4-methylsulfanylanilino)benzamide] |  | 4 |  |  |  | 53 | 8 | 5 | 7 | 2 | 
COCC(C)(C)NS(=O)(=O)Nc1nccc(Cc2cc(C(N)=O)c(Nc3ccc(I)cc3F)c(F)c2F)c1F [Compound A-24, 3,4-Difluoro-2-(2-fluoro-4-iodoanilino)-5-[[3-fluoro-2-[(1-methoxy-2-methylpropan-2-yl)sulfamoylamino]pyridin-4-yl]methyl]benzamide] |  |  | 11 | 51 | 4 | 48 | 129 |  |  |  | 3
CNS(=O)(=O)Nc1nccc(Cc2cc(C(N)=O)c(Nc3ccc(I)cc3F)c(F)c2F)c1F [Compound A-25, 3,4-difluoro-2-(2-fluoro-4-iodoanilino)-5-[[3-fluoro-2-(methylsulfamoylamino)pyridin-4-yl]methyl]benzamide] |  |  | 0.5 | 2 | 0.2 | 7 | 5 |  |  |  | 2
NC(=O)c1cc(Cc2ccnc(NS(=O)(=O)NC3CC3)c2F)c(F)c(F)c1Nc1ccc(I)cc1F [Compound A-30, 5-[[2-(cyclopropylsulfamoylamino)-3-fluoropyridin-4-yl]methyl]-3,4-difluoro-2-(2-fluoro-4-iodoanilino)benzamide] |  |  | 3 | 8 | 1 | 10 | 9 |  |  |  | 8
CC(C)NS(=O)(=O)Nc1nccc(Cc2cc(C(N)=O)c(Nc3ccc(I)cc3F)c(F)c2F)c1F [Compound A-31, 3,4-difluoro-2-(2-fluoro-4-iodoanilino)-5-[[3-fluoro-2-(propan-2-ylsulfamoylamino)pyridin-4-yl]methyl]benzamide] |  |  | 20 | 31 | 7 | 9 | 49 |  |  |  | 6
